# Assay results reported in paper PMC8264259, “A Novel Ruthenium(II) Complex With Lapachol Induces G2/M Phase Arrest Through Aurora-B Kinase Down-Regulation and ROS-Mediated Apoptosis in Human Prostate Adenocarcinoma Cells” (Frontiers in Oncology, 2021).
# Columns and labels:
# DU-145 cells [1] = experiment: Cell cycle analysis (PI, flow cytometry); format: cell-based, human; conditions: DU-145, 0.25-1.5 μM, 24 h
# Description: DNA staining was performed using BD Cycletest™ Plus DNA Kit (BD Biosciences, USA) according to the manufacturer’s instructions. Briefly, DU-145 cells were seeded (5.0 × 10^4 cells/well) into 24-well culture plates and maintained to attach at 37°C in 5% CO2. After 24 h, the culture medium was replaced by complete culture medium containing 0.25, 0.5, 1.0, and 1.5 μM of complex (2). DMSO (0.1% v/v) was used as the vehicle control. Then, after 24 h treatment, the cells were harvested and fixed with 70% ethanol at 4°C for 1 h. Cells were incubated with 0.1 mg/ml RNase and 0.5 mg/ml propidium iodide (PI) for 10 min. Samples were then filtered using 50-µm nylon mesh and the FACSCanto flow cytometer (Becton Dickinson, Franklin Lakes, NJ, USA) was used to analyze the DNA histogram. Data from 10,000 cells were acquired and analyzed using the ModFit software (BD Biosciences, USA). The results were expressed as percentage of cells in each cell cycle phase (G1, S, and G2/M).
# DU-145 cells [2] = experiment: Gene expression analysis by qPCR array (Human Cancer Drug Targets); format: cell-based; conditions: DU-145, 1.0 µM, 12 h, mRNA, ΔΔCt vs vehicle
# Description: Briefly, DU-145 cells were seeded (1.0 × 10^6 cells/well) into six-well plates and maintained to attach at 37°C in 5% CO2. After 24 h, the cells were treated with 1.0 μM of the complex (2). DMSO (0.1% v/v) was used as the vehicle control. After 12 h of incubation, total RNA was isolated from the cells using the RNeasy® Mini kit (Qiagen, Germany) according to the manufacturer’s instructions. RNA was quantified by NanoDrop spectrophotometer (ND-2000; Thermo Fischer Scientific). The Agilent 2100 Bioanalyzer and Agilent RNA 6000 Nanochip kits were used to assess the total RNA quality as per manual instruction (Agilent, USA). The Agilent 2100 Expert software (Version B.02.07.SI532) was used with the Eukaryote Total RNA Nano assay on the Agilent 2100 bioanalyzer. No significant differences in RIN values were observed across the samples. Complementary DNA strands were synthesized using the RT^2 First Strand kit (Qiagen, Germany), following the manufacturer’s instructions. Gene expression profiling was performed using the RT^2 Profiler™ PCR Array Human Cancer Drug Targets (PAHS 507Z, Qiagen) by qPCR. The reactions were conducted in the Applied Biosystems 7500 PCR System (Applied Biosystems, USA) thermocycler. The plate was heated to 95°C for 10 min, followed by 40 cycles of 95°C for 15 s and 60°C for 1 min, followed by the dissociation curve. The expression profile of 84 key drug targets genes was analyzed. Fold changes amplification for targeted genes was normalized to the housekeeping genes GAPDH and RPLP0 by the delta–delta cycle threshold method (ΔΔCt), and the cells treated with vehicle control (0.1% of DMSO v/v) was used as calibrator. The threshold cycle values of control wells were all within the ranges recommended by the PCR array user manual. Three independent biological replicates were performed. All experiments were performed in DNase/RNase free conditions. Genes were considered differentially regulated if the difference was ≥1.8-fold, which means that the gene expression in the compound-treated cells was at 1.8-fold that in the negative control-treated cells. Differences were considered significant at p ≤ 0.05. Statistical analysis of two groups was performed automatically according to the GeneGlobe Data Analysis Center (Qiagen, USA; https://geneglobe.qiagen.com/us/analyze).
# DU-145 cells [3] = experiment: Annexin-V/PI staining assay (flow cytometry); format: cell-based, human; conditions: for population of apoptotic cells: 24 h, control group 5.9%
# Description: The measurement of cell death was performed by the guidelines of ([35]). Detection of apoptotic/necrotic cells was determined by flow cytometry using the Alexa Fluor® 488 Annexin V/PI (Thermo Fischer Scientific), and the analyses were performed according to the manufacturer’s instructions. […] DMSO (0.1% v/v) was used as the vehicle control. Following 24 h of incubation, the cells were collected with Accutase® (Gibco-Invitrogen®), washed with PBS and resuspended in 200 μl of cold annexin-binding buffer. Next, 10 μl of Alexa Fluor® was added to Annexin V (50 μl/ml) staining buffer, and the mixture was incubated in the dark at 4°C for 15 min. Previously, the analyses, 100 μl of PI (2 μg/ml) was added, and then, the fluorescence was measured by flow cytometry in a FACSCanto flow cytometer (BD Biosciences, USA) using the Diva software. Ten thousand events were evaluated per experiment, and cellular debris was omitted from the analysis.
structure (smiles),measurement,setting,value
"CC(C)=CCC1=C([O-])C(=O)c2ccccc2C1=O.F[P-](F)(F)(F)(F)F.[Ru+2].c1ccc(P(CP(c2ccccc2)c2ccccc2)c2ccccc2)cc1.c1cnc2c(c1)ccc1cccnc12 [complex (2), [Ru(Lap)(dppm)(phen)]PF6]",cell cycle distribution,DU-145 cells [1],increased cell number at the G2/M phase
same,"Fold change, AKT1",DU-145 cells [2],−2.6 fold
same,"Fold change, AKT2",DU-145 cells [2],−2.6 fold
same,"Fold change, AURKA",DU-145 cells [2],-5.3 fold
same,"Fold change, AURKB",DU-145 cells [2],-11.1 fold
same,"Fold change, AURKC",DU-145 cells [2],-3.0 fold
same,"Fold change, BCL2",DU-145 cells [2],-4.1 fold
same,"Fold change, BIRC5",DU-145 cells [2],-6.4 fold
same,"Fold change, CDC25A",DU-145 cells [2],−2.6 fold
same,"Fold change, CDK1",DU-145 cells [2],-4.5 fold
same,"Fold change, CDK2",DU-145 cells [2],−2.7 fold
same,"Fold change, CDK4",DU-145 cells [2],-4.6 fold
same,"Fold change, CDK5",DU-145 cells [2],−3.2 fold
same,"Fold change, EGFR",DU-145 cells [2],−4.1 fold
same,"Fold change, ERBB2",DU-145 cells [2],−2.4 fold
same,"Fold change, GSTP1",DU-145 cells [2],−2.9 fold
same,"Fold change, HDAC8",DU-145 cells [2],−1.8 fold
same,"Fold change, IGF1R",DU-145 cells [2],−2.7 fold
same,"Fold change, MDM4",DU-145 cells [2],2.8 fold
same,"Fold change, MTOR",DU-145 cells [2],−3.8 fold
same,"Fold change, PARP1",DU-145 cells [2],−2.7 fold
same,"Fold change, PARP2",DU-145 cells [2],−3.0 fold
same,"Fold change, PDGFRB",DU-145 cells [2],−2.0 fold
same,"Fold change, PIK3CA",DU-145 cells [2],−2.7 fold
same,"Fold change, PTGS2",DU-145 cells [2],2.1 fold
same,"Fold change, TOP2A",DU-145 cells [2],−2.1 fold
same,"Fold change, TOP2B",DU-145 cells [2],−2.8 fold
same,population of apoptotic cells,"DU-145 cells [3]; DU-145, 0.25 μM",11.8%
same,population of apoptotic cells,"DU-145 cells [3]; DU-145, 0.5 μM",22.7%
same,population of apoptotic cells,"DU-145 cells [3]; DU-145, 1.0 μM",41.4%
same,population of apoptotic cells,"DU-145 cells [3]; DU-145, 1.5 μM",70.2%
same,fold lower concentration required for the same effect of cisplatin,"DU-145 cells [3]; apoptotic DU-145 cells, vs cisplatin 25 μM",100 fold
